Test results: PubChem BioAssay AID1963427 (Molecular Pharmacology Branch, DTP, NCI, 2024)
Each block holds one compound with its values, some of them ahead of it.

System: 317291-083-R-J1-PDC complex spheroid growth
Test: Anticancer human tumor 317291-083-R-J1-PDC patient-derived soft tissue sarcoma cell line growth inhibition [Asc]
Details: for IC50: curve of first compound; for viability, T/C: stronger effect = lower value
How it was run: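 Complex solid-tumor spheroids incorporating human endothelial and mesenchymal stem cells received single agents or combinations over half-log dilution ranges anchored to clinical Cmax.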

[1] = second compound 0.00949 µM, first compound 0.0316 µM
[2] = second compound 0.00949 µM, first compound 0.1 µM
[3] = second compound 0.00949 µM, first compound 0.316 µM
[4] = second compound 0.00949 µM, first compound 1 µM
[5] = second compound 0.03 µM, first compound 0.0316 µM
[6] = second compound 0.03 µM, first compound 0.1 µM
[7] = second compound 0.03 µM, first compound 0.316 µM
[8] = second compound 0.03 µM, first compound 1 µM
[9] = second compound 0.0949 µM, first compound 0.0316 µM
[10] = second compound 0.0949 µM, first compound 0.1 µM
[11] = second compound 0.0949 µM, first compound 0.316 µM
[12] = second compound 0.0949 µM, first compound 1 µM
[13] = second compound 0.3 µM, first compound 0.0316 µM
[14] = second compound 0.3 µM, first compound 0.1 µM
[15] = second compound 0.3 µM, first compound 0.316 µM
[16] = second compound 0.3 µM, first compound 1 µM
[17] = second compound 0.949 µM, first compound 0.0316 µM
[18] = second compound 0.949 µM, first compound 0.1 µM
[19] = second compound 0.949 µM, first compound 0.316 µM
[20] = second compound 0.949 µM, first compound 1 µM
[21] = second compound 3 µM, first compound 0.0316 µM
[22] = second compound 3 µM, first compound 0.1 µM
[23] = second compound 3 µM, first compound 0.316 µM
[24] = second compound 3 µM, first compound 1 µM
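Further: compound exposure lasted seven days after spheroids formed for three days.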
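Wherever viability, T/C is given: 100% = DMSO vehicle control wells.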

IC50 (second compound 0.00949 µM): > 10000 nM
IC50 (second compound 0.03 µM): > 10000 nM
IC50 (second compound 0.0949 µM): > 10000 nM
IC50 (second compound 0.3 µM): > 10000 nM
IC50 (second compound 0.949 µM): > 10000 nM
IC50 (second compound 3 µM): > 10000 nM
SMILES: C#Cc1c(F)ccc2cc(O)cc(-c3ncc4c(N5CC6CCC(C5)N6)nc(OCC56CCCN5CC(F)C6)nc4c3F)c12 (stereo unspecified) + CCN1C(C(=O)NC23CCC(C(=O)O)(CC2)CC3)C(c2cccc(Cl)c2F)C2(C(=O)Nc3cc(Cl)ccc32)C12CCCCC2
viability, T/C [1]: 129%
viability, T/C [2]: 78.8%
viability, T/C [3]: 125%
viability, T/C [4]: 153%
viability, T/C (second compound 0.00949 µM, first compound 3.16 µM): 113%
viability, T/C (second compound 0.00949 µM, first compound 10 µM): 66.1%
viability, T/C [5]: 106%
viability, T/C [6]: 98.3%
viability, T/C [7]: 106%
viability, T/C [8]: 112%
viability, T/C (second compound 0.03 µM, first compound 3.16 µM): 78.2%
viability, T/C (second compound 0.03 µM, first compound 10 µM): 80.2%
viability, T/C [9]: 108%
viability, T/C [10]: 101%
viability, T/C [11]: 104%
viability, T/C [12]: 99.6%
viability, T/C (second compound 0.0949 µM, first compound 3.16 µM): 118%
viability, T/C (second compound 0.0949 µM, first compound 10 µM): 79.4%
viability, T/C [13]: 101%
viability, T/C [14]: 97.6%
viability, T/C [15]: 120%
viability, T/C [16]: 126%
viability, T/C (second compound 0.3 µM, first compound 3.16 µM): 101%
viability, T/C (second compound 0.3 µM, first compound 10 µM): 69.9%
viability, T/C [17]: 104%
viability, T/C [18]: 108%
viability, T/C [19]: 90.2%
viability, T/C [20]: 98.7%
viability, T/C (second compound 0.949 µM, first compound 3.16 µM): 100%
viability, T/C (second compound 0.949 µM, first compound 10 µM): 78.4%
viability, T/C [21]: 72.3%
viability, T/C [22]: 74.1%
viability, T/C [23]: 77.2%
viability, T/C [24]: 86.6%
viability, T/C (second compound 3 µM, first compound 3.16 µM): 69.9%
viability, T/C (second compound 3 µM, first compound 10 µM): 53.6%

IC50 (second compound 0.00949 µM): 253 nM
IC50 (second compound 0.03 µM): 517 nM
IC50 (second compound 0.0949 µM): 313 nM
IC50 (second compound 0.3 µM): 459 nM
IC50 (second compound 0.949 µM): > 1000 nM
IC50 (second compound 3 µM): 75.2 nM
SMILES: CNC(C)C(=O)NC1CN(S(=O)(=O)c2cccc(S(=O)(=O)N3CCC4CCC(C(=O)NC(c5ccccc5)c5ccccc5)N4C(=O)C(NC(=O)C(C)NC)C3)c2)CCC2CCC(C(=O)NC(c3ccccc3)c3ccccc3)N2C1=O (stereo unspecified) + CCN1C(C(=O)NC23CCC(C(=O)O)(CC2)CC3)C(c2cccc(Cl)c2F)C2(C(=O)Nc3cc(Cl)ccc32)C12CCCCC2
viability, T/C (second compound 0.00949 µM, first compound 0.00316 µM): 96.9%
viability, T/C (second compound 0.00949 µM, first compound 0.01 µM): 86%
viability, T/C [1]: 71.7%
viability, T/C [2]: 61.3%
viability, T/C [3]: 49.5%
viability, T/C [4]: 32.1%
viability, T/C (second compound 0.03 µM, first compound 0.00316 µM): 81.3%
viability, T/C (second compound 0.03 µM, first compound 0.01 µM): 87.8%
viability, T/C [5]: 72.5%
viability, T/C [6]: 65.2%
viability, T/C [7]: 50.9%
viability, T/C [8]: 47.7%
viability, T/C (second compound 0.0949 µM, first compound 0.00316 µM): 108%
viability, T/C (second compound 0.0949 µM, first compound 0.01 µM): 101%
viability, T/C [9]: 79.1%
viability, T/C [10]: 67.4%
viability, T/C [11]: 49.1%
viability, T/C [12]: 39.2%
viability, T/C (second compound 0.3 µM, first compound 0.00316 µM): 98.7%
viability, T/C (second compound 0.3 µM, first compound 0.01 µM): 71.4%
viability, T/C [13]: 70.9%
viability, T/C [14]: 68.7%
viability, T/C [15]: 54.5%
viability, T/C [16]: 41.1%
viability, T/C (second compound 0.949 µM, first compound 0.00316 µM): 90.1%
viability, T/C (second compound 0.949 µM, first compound 0.01 µM): 66.4%
viability, T/C [17]: 64.1%
viability, T/C [18]: 62.4%
viability, T/C [19]: 38.9%
viability, T/C [20]: 63.8%
viability, T/C (second compound 3 µM, first compound 0.00316 µM): 64.4%
viability, T/C (second compound 3 µM, first compound 0.01 µM): 66.1%
viability, T/C [21]: 59%
viability, T/C [22]: 47.7%
viability, T/C [23]: 34.6%
viability, T/C [24]: 35.4%

IC50 (second compound 0.00949 µM): > 3000 nM
IC50 (second compound 0.03 µM): 2830 nM
IC50 (second compound 0.0949 µM): > 3000 nM
IC50 (second compound 0.3 µM): > 3000 nM
IC50 (second compound 0.949 µM): > 3000 nM
IC50 (second compound 3 µM): 2740 nM
SMILES: Cc1nc(N2CCC3(CC2)COC(C)C3N)c(CO)nc1Sc1ccnc(N)c1Cl (stereo unspecified) + CCN1C(C(=O)NC23CCC(C(=O)O)(CC2)CC3)C(c2cccc(Cl)c2F)C2(C(=O)Nc3cc(Cl)ccc32)C12CCCCC2
viability, T/C (second compound 0.00949 µM, first compound 0.00949 µM): 103%
viability, T/C (second compound 0.00949 µM, first compound 0.03 µM): 96%
viability, T/C (second compound 0.00949 µM, first compound 0.0949 µM): 94.9%
viability, T/C (second compound 0.00949 µM, first compound 0.3 µM): 74.2%
viability, T/C (second compound 0.00949 µM, first compound 0.949 µM): 95.7%
viability, T/C (second compound 0.00949 µM, first compound 3 µM): 53.6%
viability, T/C (second compound 0.03 µM, first compound 0.00949 µM): 108%
viability, T/C (second compound 0.03 µM, first compound 0.03 µM): 107%
viability, T/C (second compound 0.03 µM, first compound 0.0949 µM): 96.7%
viability, T/C (second compound 0.03 µM, first compound 0.3 µM): 90.8%
viability, T/C (second compound 0.03 µM, first compound 0.949 µM): 69%
viability, T/C (second compound 0.03 µM, first compound 3 µM): 49%
viability, T/C (second compound 0.0949 µM, first compound 0.00949 µM): 104%
viability, T/C (second compound 0.0949 µM, first compound 0.03 µM): 116%
viability, T/C (second compound 0.0949 µM, first compound 0.0949 µM): 92.5%
viability, T/C (second compound 0.0949 µM, first compound 0.3 µM): 78.9%
viability, T/C (second compound 0.0949 µM, first compound 0.949 µM): 70.8%
viability, T/C (second compound 0.0949 µM, first compound 3 µM): 69.4%
viability, T/C (second compound 0.3 µM, first compound 0.00949 µM): 120%
viability, T/C (second compound 0.3 µM, first compound 0.03 µM): 106%
viability, T/C (second compound 0.3 µM, first compound 0.0949 µM): 95.5%
viability, T/C (second compound 0.3 µM, first compound 0.3 µM): 97.9%
viability, T/C (second compound 0.3 µM, first compound 0.949 µM): 73.7%
viability, T/C (second compound 0.3 µM, first compound 3 µM): 56.1%
viability, T/C (second compound 0.949 µM, first compound 0.00949 µM): 86.1%
viability, T/C (second compound 0.949 µM, first compound 0.03 µM): 113%
viability, T/C (second compound 0.949 µM, first compound 0.0949 µM): 93.4%
viability, T/C (second compound 0.949 µM, first compound 0.3 µM): 84.8%
viability, T/C (second compound 0.949 µM, first compound 0.949 µM): 75.7%
viability, T/C (second compound 0.949 µM, first compound 3 µM): 59.2%
viability, T/C (second compound 3 µM, first compound 0.00949 µM): 82.2%
viability, T/C (second compound 3 µM, first compound 0.03 µM): 81.7%
viability, T/C (second compound 3 µM, first compound 0.0949 µM): 82.8%
viability, T/C (second compound 3 µM, first compound 0.3 µM): 82.3%
viability, T/C (second compound 3 µM, first compound 0.949 µM): 66.7%
viability, T/C (second compound 3 µM, first compound 3 µM): 48.5%
